{
  "source": "patent US20160143906A1",
  "about": "“EFFICACIOUS TREATMENT OF NSCLC AND PREDICTIVE CLINICAL MARKER OF THE RESPONSIVENESS OF A TUMOUR TO A TREATMENT” (Boehringer Ingelheim International GmbH, priority 2013, published 2016)",
  "key": {"[1]": {"tested_on": "tumors with activating EGFR mutations or the Alk translocation", "details": "monotherapy; non-squamous patients with activating EGFR mutations or Alk translocation; cited from earlier work"}, "[2]": {"tested_on": "NSCLC after fast progression on first-line platinum doublet chemotherapy", "details": "TITAN; fast progressing patients who failed during 1st line platinum containing therapy; cited from earlier work"}, "GS-9L syngeneic rat": {"tested_on": "GS-9L syngeneic rat", "assay": "in vivo anti-tumor efficacy, syngeneic rat tumor model GS-9L (glioblastoma)", "details": "50 mg/kg/d"}, "Caki-1": {"tested_on": "Caki-1", "assay": "in vivo anti-tumor efficacy, xenograft model Caki-1 (renal)", "details": "100 mg/kg/d"}, "NSCLC": {"tested_on": "NSCLC", "assay": "clinical trial evidence as summarised (progression within 9 months or less after initiation of prior treatment)", "format": "in vivo, human"}, "Rip-Tag": {"tested_on": "Rip-Tag", "assay": "in vivo anti-tumor efficacy, Rip-Tag model (pancreas, murine transgenic)"}, "advanced NSCLC tumours": {"tested_on": "advanced NSCLC tumours", "assay": "Phase 3 clinical study LUME LUNG 2 (nintedanib+pemetrexed vs placebo+pemetrexed)", "format": "in vivo, human", "source_text": "Continuation until Progressive Disease (PD) or unacceptable toxicity with nintedanib, placebo, pemetrexed, or a combination thereof, was permitted. […] Primary endpoint was centrally assessed PFS. Secondary endpoints included OS, investigator-assessed PFS, Response Rate (RR), safety, and Quality of Life (QoL). Stepwise selection, using Cox proportional hazards modeling and a recursive partitioning tree, identified baseline variables prognostic for PFS in Arm B (placebo) of LUME LUNG 2. […] These methods were applied to the LUME LUNG 2 Data Monitoring Committee (DMC) dataset, to develop a hypothesis that was tested and validated by three steps: (i) internal confirmation using centrally assessed PFS and internal validation using OS data of the clinical trial LL2; (ii) external validation using the data from the primary analysis of the independent clinical trial LL1 (centrally assessed PFS and internal validation using OS data); and (iii) external validation using the final OS data of the clinical trial LL1.\n(§1) In the case of a significant interaction between treatment and a continuous variable, not only the categorisation delivered by the recursive partitioning was investigated but hazard ratios HR (treatment effect) were also globally estimated at different values of the interacting covariate.\n(§2) Kaplan-Meier plots and Forrest Plots were further used for the graphical presentation of the results."}, "SKOV3": {"tested_on": "SKOV3", "assay": "in vivo anti-tumor efficacy, xenograft model SKOV3 (ovarian)", "details": "50 mg/kg/d"}, "PAC-120": {"tested_on": "PAC-120", "assay": "in vivo anti-tumor efficacy, xenograft model PAC-120 (prostate, hormone-dependent)", "details": "100 mg/kg/d"}, "Calu-6": {"tested_on": "Calu-6", "assay": "in vivo anti-tumor efficacy, xenograft model Calu-6 (lung, non-small-cell)", "details": "50 mg/kg/d"}, "NCI-H460": {"tested_on": "NCI-H460", "assay": "in vivo anti-tumor efficacy, xenograft model NCI-H460 (lung, non-small-cell)", "details": "25 mg/kg/d"}, "FaDu": {"tested_on": "FaDu", "assay": "in vivo anti-tumor efficacy, xenograft model FaDu (head and neck)", "details": "100 mg/kg/d"}, "[3]": {"tested_on": "locally advanced/metastatic NSCLC", "assay": "Phase 3 clinical study LUME LUNG 1 (nintedanib+docetaxel vs placebo+docetaxel)", "format": "in vivo, human", "source_text": "LUME LUNG 1 is a placebo-controlled phase 3 trial investigating nintedanib+docetaxel in patients with locally advanced/metastatic NSCLC progressing after one prior combination regimen.\nas §1, §2"}, "HT-29": {"tested_on": "HT-29", "assay": "in vivo anti-tumor efficacy, xenograft model HT-29 (colorectal)"}, "[4]": {"details": "LL1 squamous cell tumour histology"}, "[5]": {"details": "LL1 squamous cell, large tumour burden"}},
  "note": "Entries after “also recorded” stand apart in the source; their conditions may differ. Read-outs that look alike come from different tables or passages of the source.",
  "data": [
    {"smiles": "C#Cc1cccc(Nc2ncnc3cc(OCCOC)c(OCCOC)cc23)c1", "note": "[erlotinib]", "values": [
      {"measurement": "OS improvement", "setting": "[1]", "result": "no OS improvements have been observed"},
      {"measurement": "median PFS", "setting": "[1]", "result": "around 20 months"},
      {"measurement": "efficacy in PFS and OS compared to docetaxel or pemetrexed", "setting": "[2]", "result": "did not show any superior efficacy"}
    ]},
    {"smiles": "COC(=O)c1ccc2c(c1)NC(=O)/C2=C(\\Nc1ccc(N(C)C(=O)CN2CCN(C)CC2)cc1)c1ccccc1", "note": "[nintedanib, 3-Z-[1-(4-(N-((4-methyl-piperazin-1-yl)-methylcarbonyl)-N-methyl-amino)-anilino)-1-phenyl-methylene]-6-methoxycarbonyl-2-indolinone]", "values": [
      {"measurement": "T/C (reduction of tumor size in % of the control)", "setting": "GS-9L syngeneic rat", "result": "T/C 32% @ 50 mg/kg/d"},
      {"measurement": "T/C (reduction of tumor size in % of the control)", "setting": "Caki-1", "result": "T/C 13% @ 100 mg/kg/d"},
      {"measurement": "improvement in the median of both PFS and OS compared to placebo", "setting": "NSCLC", "result": "superior or equal to one month"},
      {"measurement": "improvement in the median of both PFS and OS compared to placebo", "setting": "NSCLC; adenocarcinoma NSCLC", "result": "≥ 1.3", "unit": "months"},
      {"measurement": "Efficacy", "setting": "Rip-Tag", "result": "interference with tumor"},
      {"measurement": "safety", "setting": "advanced NSCLC tumours; LL2", "result": "no safety issues were identified"},
      {"measurement": "median PFS", "setting": "advanced NSCLC tumours; LL2 ITT analysis, centrally reviewed PFS", "result": 4.4, "unit": "months"},
      {"measurement": "Disease control", "setting": "advanced NSCLC tumours; LL2 ITT, versus placebo", "result": "significantly improved"},
      {"measurement": "HR (OS)", "setting": "advanced NSCLC tumours; LL2 adenocarcinoma, t<9 mo", "result": 0.87},
      {"measurement": "HR (PFS)", "setting": "advanced NSCLC tumours; LL2 adenocarcinoma, t<9 mo", "result": 0.79},
      {"measurement": "HR (OS)", "setting": "advanced NSCLC tumours; LL2 all", "result": 1.01},
      {"measurement": "HR (PFS)", "setting": "advanced NSCLC tumours; LL2 all", "result": 0.84},
      {"measurement": "Improvement of median OS of nintedanib versus placebo", "setting": "advanced NSCLC tumours; LL2 all", "result": "No difference; also recorded: None (OS)"},
      {"measurement": "median improvement of time to deterioration of cough", "setting": "advanced NSCLC tumours; LL2 fast progressing patients, nintedanib versus placebo", "result": 3.7, "unit": "months"},
      {"measurement": "median OS", "setting": "advanced NSCLC tumours; LL2 t<9 mo patient population", "result": 10.6, "unit": "months"},
      {"measurement": "median PFS", "setting": "advanced NSCLC tumours; LL2 t<9 mo patient population", "result": 4.1, "unit": "months"},
      {"measurement": "T/C (reduction of tumor size in % of the control)", "setting": "SKOV3", "result": "T/C 19% @ 50 mg/kg/d"},
      {"measurement": "T/C (reduction of tumor size in % of the control)", "setting": "PAC-120", "result": "T/C 34% @ 100 mg/kg/d"},
      {"measurement": "T/C (reduction of tumor size in % of the control)", "setting": "Calu-6", "result": "T/C 24% @ 50 mg/kg/d"},
      {"measurement": "T/C (reduction of tumor size in % of the control)", "setting": "NCI-H460", "result": "T/C 54% @ 25 mg/kg/d"},
      {"measurement": "T/C (reduction of tumor size in % of the control)", "setting": "FaDu", "result": "T/C 11% @ 100 mg/kg/d"},
      {"measurement": "HR (OS)", "setting": "[3]; LL1 adenocarcinoma", "result": 0.83},
      {"measurement": "HR (PFS)", "setting": "[3]; LL1 adenocarcinoma", "result": 0.84},
      {"measurement": "benefit in fast progressing population with cut-off of 4 or 6 months", "setting": "[3]; LL1 adenocarcinoma, t<4 mo or t<6 mo", "result": "confirmed"},
      {"measurement": "HR (OS)", "setting": "[3]; LL1 adenocarcinoma, t<9 mo", "result": 0.75},
      {"measurement": "HR (PFS)", "setting": "[3]; LL1 adenocarcinoma, t<9 mo", "result": 0.68},
      {"measurement": "HR (OS)", "setting": "[3]; LL1 all NSCLC patients", "result": 0.94},
      {"measurement": "HR (PFS)", "setting": "[3]; LL1 all NSCLC patients", "result": 0.85},
      {"measurement": "HR (OS)", "setting": "[3]; [4]", "result": 1.01},
      {"measurement": "HR (PFS)", "setting": "[3]; [4]", "result": 0.83},
      {"measurement": "Improvement of median OS of nintedanib versus placebo", "setting": "[3]; [4]", "result": "No benefit; also recorded: None (OS)"},
      {"measurement": "HR (OS)", "setting": "[3]; [5]", "result": 0.82},
      {"measurement": "HR (PFS)", "setting": "[3]; [5]", "result": 0.71},
      {"measurement": "Improvement of median PFS of nintedanib versus placebo", "setting": "[3]; [5]", "result": "0.9 months (PFS)"},
      {"measurement": "median PFS", "setting": "[3]; LL1 whole NSCLC patient population, centrally assessed", "result": 3.5, "unit": "months"},
      {"measurement": "T/C (reduction of tumor size in % of the control)", "setting": "HT-29; HT-29, 100 mg/kg/d", "result": "T/C 16% @ 100 mg/kg/d"},
      {"measurement": "Efficacy", "setting": "HT-29; HT-29 large tumors", "result": "tumor volume reduction"}
    ]}
  ]
}
